Assay results reported in patent publication US10810329B2, “In silico design of peptides equilibrated in a lipid bilayer with partition free energies indicating probability of antimicrobial activity” (priority 2015, dated 2020).
≈ marks a conversion by molar mass, not a printed value. Peptide text beside a SMILES is read from it.

Experiments:
E. coli ATCC 25922 = assay type: cell-based, Escherichia coli; details: for Antimicrobial activity (MIC) Experimental values: ATCC 25922; for MIC in MH medium: ATCC 25922, 16 h
Experimental: (§1) MIC: Minimal Inhibitory Concentration of AMPs in MH Medium Against E. coli ATCC 25922 Minimal inhibitory concentration (MIC) represents for the lowest concentration of peptide at which the AMP can still kill 90% of the bacteria. All MIC tests for WLK peptide series SEQ ID NO:1-13 were measured against Escherichia coli strain (ATCC 25922) in triplicate. Peptide concentration was determined by UV spectrophotometer (Ultrospec 1100 pro from Amersham Biosciences) at 280 nm with proper extinction coefficient. (Gill S. C. & Von Hippel P. H., Analytical biochemistry 1989, 182(2), 319-326). All of the samples were prepared from a stock solution containing peptides of concentrations 5, 2.5, 1.25, 0.625, 0.313, 0.156 and 0.078 mg/ml. Bacteria culture in the middle of logarithmic growth at a concentration of 5×10^5 colony-formation unit (CFU) and protein solution at the aforementioned concentrations were uniformly mixed in a 96-well culture plate (each well contains 1 microliter protein solution and 99 microliter of bacteria culture). After growing the culture at 37° C. for 16 hours, how bacterial growth was inhibited was measured by Thermo Max (Molecular Devices) at the wavelength of 600 nm. The MIC values were determined by triplicates of the above experiments.

[1] = test system: Escherichia coli strain (ATCC 25922); assay type: cell-based
Experimental: as §1, with “Minimal” for “MIC: Minimal Inhibitory Concentration of AMPs in MH Medium Against E. coli ATCC 25922 Minimal”

Antimicrobial activity (MIC) Experimental values (E. coli ATCC 25922)	MIC in MH medium (E. coli ATCC 25922)	MIC in LYM medium, NaCl 50 [1]	MIC in LYM medium, NaCl 100 [1]	MIC in LYM medium, NaCl 200 [1]	MIC in LYM medium, NaCl 300 [1]	MIC in LYM medium, control [1]	SMILES
3.13 µg/mL	3.13 µg/mL (≈ 1.73 µM)	1.56 µg/mL (≈ 0.86 µM)	3.13 µg/mL (≈ 1.73 µM)	6.25 µg/mL (≈ 3.45 µM)	6.25 µg/mL (≈ 3.45 µM)	1.56 µg/mL (≈ 0.86 µM)	CC(C)C[C@H](NC(=O)[C@H](Cc1c[nH]c2ccccc12)NC(=O)[C@H](CCCCN)NC(=O)[C@H](CC(C)C)NC(=O)[C@H](Cc1c[nH]c2ccccc12)NC(=O)[C@H](CCCCN)NC(=O)[C@H](CC(C)C)NC(=O)[C@H](Cc1c[nH]c2ccccc12)NC(=O)[C@H](CCCCN)NC(=O)[C@@H](N)CCCCN)C(=O)N[C@@H](CCCCN)C(=O)N[C@@H](CCCCN)C(=O)N[C@@H](CCCCN)C(=O)O [SEQ ID NO. 1, KKWLKWLKWLKKK, reference compound] (H-KKWLKWLKWLKKK-OH; N-terminus and C-terminus assumed)
6.25 µg/mL	6.25 µg/mL (≈ 3.45 µM)	1.56 µg/mL (≈ 0.86 µM)	6.25 µg/mL (≈ 3.45 µM)	12.5 µg/mL (≈ 6.89 µM)	12.5 µg/mL (≈ 6.89 µM)	1.56 µg/mL (≈ 0.86 µM)	CC(C)C[C@H](NC(=O)[C@H](Cc1c[nH]c2ccccc12)NC(=O)[C@H](CCCCN)NC(=O)[C@H](CC(C)C)NC(=O)[C@H](Cc1c[nH]c2ccccc12)NC(=O)[C@H](CCCCN)NC(=O)[C@H](CC(C)C)NC(=O)[C@H](Cc1c[nH]c2ccccc12)NC(=O)[C@@H](N)CCCCN)C(=O)N[C@@H](CCCCN)C(=O)N[C@@H](CCCCN)C(=O)N[C@@H](CCCCN)C(=O)N[C@@H](CCCCN)C(=O)O [SEQ ID NO. 2, KWLKWLKWLKKKK] (H-KWLKWLKWLKKKK-OH; N-terminus and C-terminus assumed)
6.25 µg/mL	6.25 µg/mL (≈ 3.45 µM)	3.13 µg/mL (≈ 1.73 µM)	3.13 µg/mL (≈ 1.73 µM)	12.5 µg/mL (≈ 6.89 µM)	25 µg/mL (≈ 13.8 µM)	1.56 µg/mL (≈ 0.86 µM)	CC(C)C[C@H](NC(=O)[C@H](Cc1c[nH]c2ccccc12)NC(=O)[C@H](CCCCN)NC(=O)[C@H](CC(C)C)NC(=O)[C@H](Cc1c[nH]c2ccccc12)NC(=O)[C@H](CCCCN)NC(=O)[C@H](CC(C)C)NC(=O)[C@@H](N)Cc1c[nH]c2ccccc12)C(=O)N[C@@H](CCCCN)C(=O)N[C@@H](CCCCN)C(=O)N[C@@H](CCCCN)C(=O)N[C@@H](CCCCN)C(=O)N[C@@H](CCCCN)C(=O)O [SEQ ID NO. 3, WLKWLKWLKKKKK] (H-WLKWLKWLKKKKK-OH; N-terminus and C-terminus assumed)
12.5 µg/mL	12.5 µg/mL (≈ 6.89 µM)	3.13 µg/mL (≈ 1.73 µM)	3.13 µg/mL (≈ 1.73 µM)	12.5 µg/mL (≈ 6.89 µM)	50 µg/mL (≈ 27.6 µM)	1.56 µg/mL (≈ 0.86 µM)	CC(C)C[C@H](NC(=O)[C@H](Cc1c[nH]c2ccccc12)NC(=O)[C@H](CCCCN)NC(=O)[C@H](CC(C)C)NC(=O)[C@H](Cc1c[nH]c2ccccc12)NC(=O)[C@H](CCCCN)NC(=O)[C@@H](N)CC(C)C)C(=O)N[C@@H](CCCCN)C(=O)N[C@@H](CCCCN)C(=O)N[C@@H](CCCCN)C(=O)N[C@@H](CCCCN)C(=O)N[C@@H](CCCCN)C(=O)N[C@@H](Cc1c[nH]c2ccccc12)C(=O)O [SEQ ID NO. 4, LKWLKWLKKKKKW] (H-LKWLKWLKKKKKW-OH; N-terminus and C-terminus assumed)
12.5 µg/mL	12.5 µg/mL (≈ 6.89 µM)	3.13 µg/mL (≈ 1.73 µM)	12.5 µg/mL (≈ 6.89 µM)	25 µg/mL (≈ 13.8 µM)	50 µg/mL (≈ 27.6 µM)	3.13 µg/mL (≈ 1.73 µM)	CC(C)C[C@H](NC(=O)[C@H](Cc1c[nH]c2ccccc12)NC(=O)[C@H](CCCCN)NC(=O)[C@H](CCCCN)NC(=O)[C@H](CCCCN)NC(=O)[C@H](CCCCN)NC(=O)[C@H](CCCCN)NC(=O)[C@H](CC(C)C)NC(=O)[C@H](Cc1c[nH]c2ccccc12)NC(=O)[C@H](CCCCN)NC(=O)[C@H](CC(C)C)NC(=O)[C@H](Cc1c[nH]c2ccccc12)NC(=O)[C@@H](N)CCCCN)C(=O)O [SEQ ID NO. 5, KWLKWLKKKKKWL] (H-KWLKWLKKKKKWL-OH; N-terminus and C-terminus assumed)
6.25 µg/mL	6.25 µg/mL (≈ 3.45 µM)	3.13 µg/mL (≈ 1.73 µM)	6.25 µg/mL (≈ 3.45 µM)	12.5 µg/mL (≈ 6.89 µM)	25 µg/mL (≈ 13.8 µM)	1.56 µg/mL (≈ 0.86 µM)	CC(C)C[C@H](NC(=O)[C@H](Cc1c[nH]c2ccccc12)NC(=O)[C@H](CCCCN)NC(=O)[C@H](CCCCN)NC(=O)[C@H](CCCCN)NC(=O)[C@H](CCCCN)NC(=O)[C@H](CCCCN)NC(=O)[C@H](CC(C)C)NC(=O)[C@H](Cc1c[nH]c2ccccc12)NC(=O)[C@H](CCCCN)NC(=O)[C@H](CC(C)C)NC(=O)[C@@H](N)Cc1c[nH]c2ccccc12)C(=O)N[C@@H](CCCCN)C(=O)O [SEQ ID NO. 6, WLKWLKKKKKWLK] (H-WLKWLKKKKKWLK-OH; N-terminus and C-terminus assumed)
12.5 µg/mL	12.5 µg/mL (≈ 6.89 µM)	3.13 µg/mL (≈ 1.73 µM)	6.25 µg/mL (≈ 3.45 µM)	12.5 µg/mL (≈ 6.89 µM)	50 µg/mL (≈ 27.6 µM)	3.13 µg/mL (≈ 1.73 µM)	CC(C)C[C@H](NC(=O)[C@H](Cc1c[nH]c2ccccc12)NC(=O)[C@H](CCCCN)NC(=O)[C@H](CCCCN)NC(=O)[C@H](CCCCN)NC(=O)[C@H](CCCCN)NC(=O)[C@H](CCCCN)NC(=O)[C@H](CC(C)C)NC(=O)[C@H](Cc1c[nH]c2ccccc12)NC(=O)[C@H](CCCCN)NC(=O)[C@@H](N)CC(C)C)C(=O)N[C@@H](CCCCN)C(=O)N[C@@H](Cc1c[nH]c2ccccc12)C(=O)O [SEQ ID NO. 7, LKWLKKKKKWLKW] (H-LKWLKKKKKWLKW-OH; N-terminus and C-terminus assumed)
6.25 µg/mL	6.25 µg/mL (≈ 3.45 µM)	3.13 µg/mL (≈ 1.73 µM)	3.13 µg/mL (≈ 1.73 µM)	6.25 µg/mL (≈ 3.45 µM)	12.5 µg/mL (≈ 6.89 µM)	3.13 µg/mL (≈ 1.73 µM)	CC(C)C[C@H](NC(=O)[C@H](Cc1c[nH]c2ccccc12)NC(=O)[C@H](CCCCN)NC(=O)[C@H](CC(C)C)NC(=O)[C@H](Cc1c[nH]c2ccccc12)NC(=O)[C@H](CCCCN)NC(=O)[C@H](CCCCN)NC(=O)[C@H](CCCCN)NC(=O)[C@H](CCCCN)NC(=O)[C@H](CCCCN)NC(=O)[C@H](CC(C)C)NC(=O)[C@H](Cc1c[nH]c2ccccc12)NC(=O)[C@@H](N)CCCCN)C(=O)O [SEQ ID NO. 8, KWLKKKKKWLKWL] (H-KWLKKKKKWLKWL-OH; N-terminus and C-terminus assumed)
6.25 µg/mL	6.25 µg/mL (≈ 3.45 µM)	3.13 µg/mL (≈ 1.73 µM)	3.13 µg/mL (≈ 1.73 µM)	12.5 µg/mL (≈ 6.89 µM)	50 µg/mL (≈ 27.6 µM)	3.13 µg/mL (≈ 1.73 µM)	CC(C)C[C@H](NC(=O)[C@H](Cc1c[nH]c2ccccc12)NC(=O)[C@H](CCCCN)NC(=O)[C@H](CC(C)C)NC(=O)[C@H](Cc1c[nH]c2ccccc12)NC(=O)[C@H](CCCCN)NC(=O)[C@H](CCCCN)NC(=O)[C@H](CCCCN)NC(=O)[C@H](CCCCN)NC(=O)[C@H](CCCCN)NC(=O)[C@H](CC(C)C)NC(=O)[C@@H](N)Cc1c[nH]c2ccccc12)C(=O)N[C@@H](CCCCN)C(=O)O [SEQ ID NO. 9, WLKKKKKWLKWLK] (H-WLKKKKKWLKWLK-OH; N-terminus and C-terminus assumed)
6.25 µg/mL	6.25 µg/mL (≈ 3.45 µM)	3.13 µg/mL (≈ 1.73 µM)	3.13 µg/mL (≈ 1.73 µM)	6.25 µg/mL (≈ 3.45 µM)	25 µg/mL (≈ 13.8 µM)	3.13 µg/mL (≈ 1.73 µM)	CC(C)C[C@H](NC(=O)[C@H](Cc1c[nH]c2ccccc12)NC(=O)[C@H](CCCCN)NC(=O)[C@H](CC(C)C)NC(=O)[C@H](Cc1c[nH]c2ccccc12)NC(=O)[C@H](CCCCN)NC(=O)[C@H](CCCCN)NC(=O)[C@H](CCCCN)NC(=O)[C@H](CCCCN)NC(=O)[C@H](CCCCN)NC(=O)[C@@H](N)CC(C)C)C(=O)N[C@@H](CCCCN)C(=O)N[C@@H](Cc1c[nH]c2ccccc12)C(=O)O [SEQ ID NO. 10, LKKKKKWLKWLKW] (H-LKKKKKWLKWLKW-OH; N-terminus and C-terminus assumed)
